Measured values published in publication PMC6514978, “Synthesis, Antibacterial Activities, Mode of Action and Acute Toxicity Studies of New Oxazolidinone-Fluoroquinolone Hybrids” (Molecules, 2019).
Converted amounts (≈) assume the structure as drawn.

What was measured:
Gram-positive isolates = assay: MIC summary, clinical isolates; format: cell-based; conditions: for MIC90: Gram-positive clinical isolates, read-out: MIC90 values for Gram-positive isolates (span over species)
Text: (§1) 6 standard strains and 3 clinical isolates were used to the preliminary evaluation of in vitro antibacterial activities of oxazolidinone-fluoroquinolone hybrids. For the further evaluation of hybrids OBP-4 and OBP-5, 263 clinical isolates including S. aureus (46), S. haemolyticus(32), S. epidermidis (10), E. faecalis (72), E. faecium (47), S. pneumoniae (13), H. parasuis (34), S. suis (9), and 8 resistant strains including MRSA, MRSE, CIP-resistant S. aureus and S. haemolyticus, VAN and quinolone-resistant S. pneumoniae, LZD-resistant E. faecalis, LZD/VAN and quinolone-resistant E. faecium were collected and tested.
Susceptibility testing of oxazolidinone-fluoroquinolone hybrids against various bacteria was performed by the broth microdilution method as outlined by the Clinical and Laboratory Standards Institute (CLSI). Three types of media, including cation-adjusted Mueller Hinton broth, Haemophilus Test Medium and cation-adjusted Mueller Hinton broth that contained 3%–5% lysed horse blood, were used to culture the corresponding bacteria. All compounds including comparator drugs were dissolved in an appropriate solvent at a concentration of 2.048 mg/mL and then serially diluted two-fold to provide the required concentrations. A final inoculum of 5 × 10^5 CFU/mL was used and plates were read after incubation for 16–24 h at 35 °C. […] Standard quality control strains (ATCC) were included throughout. Each determination was repeated in triplicate.

E. coli Topo IV = molecular target: T1, E. coli Topo IV (Escherichia coli, UniProt P0AFI2+P20083); assay: Topo IV relaxation assay; format: biochemical; conditions: relaxation of supercoiled pBR322, 37 °C, 30 min
T1 construct: purchased Inspiralis Co., Ltd; host or cells: overexpressing E. coli
T1 sequence (P20083 whole entry): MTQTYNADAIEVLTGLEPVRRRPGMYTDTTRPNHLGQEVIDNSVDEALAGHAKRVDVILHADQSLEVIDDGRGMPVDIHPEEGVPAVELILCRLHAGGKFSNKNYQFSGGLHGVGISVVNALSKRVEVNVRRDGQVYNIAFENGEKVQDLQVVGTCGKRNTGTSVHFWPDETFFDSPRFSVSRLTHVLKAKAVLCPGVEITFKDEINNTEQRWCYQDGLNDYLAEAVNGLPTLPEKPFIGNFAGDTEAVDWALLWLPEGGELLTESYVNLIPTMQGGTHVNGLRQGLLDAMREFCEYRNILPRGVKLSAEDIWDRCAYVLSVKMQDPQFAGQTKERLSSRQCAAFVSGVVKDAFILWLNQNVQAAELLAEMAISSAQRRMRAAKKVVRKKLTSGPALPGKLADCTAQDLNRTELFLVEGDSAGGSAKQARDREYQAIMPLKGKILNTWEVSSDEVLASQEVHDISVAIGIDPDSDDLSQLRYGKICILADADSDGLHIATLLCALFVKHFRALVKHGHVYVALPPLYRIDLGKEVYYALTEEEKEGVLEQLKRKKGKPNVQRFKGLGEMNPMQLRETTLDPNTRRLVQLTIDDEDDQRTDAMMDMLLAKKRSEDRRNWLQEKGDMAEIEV
T1 sequence (P0AFI2 whole entry): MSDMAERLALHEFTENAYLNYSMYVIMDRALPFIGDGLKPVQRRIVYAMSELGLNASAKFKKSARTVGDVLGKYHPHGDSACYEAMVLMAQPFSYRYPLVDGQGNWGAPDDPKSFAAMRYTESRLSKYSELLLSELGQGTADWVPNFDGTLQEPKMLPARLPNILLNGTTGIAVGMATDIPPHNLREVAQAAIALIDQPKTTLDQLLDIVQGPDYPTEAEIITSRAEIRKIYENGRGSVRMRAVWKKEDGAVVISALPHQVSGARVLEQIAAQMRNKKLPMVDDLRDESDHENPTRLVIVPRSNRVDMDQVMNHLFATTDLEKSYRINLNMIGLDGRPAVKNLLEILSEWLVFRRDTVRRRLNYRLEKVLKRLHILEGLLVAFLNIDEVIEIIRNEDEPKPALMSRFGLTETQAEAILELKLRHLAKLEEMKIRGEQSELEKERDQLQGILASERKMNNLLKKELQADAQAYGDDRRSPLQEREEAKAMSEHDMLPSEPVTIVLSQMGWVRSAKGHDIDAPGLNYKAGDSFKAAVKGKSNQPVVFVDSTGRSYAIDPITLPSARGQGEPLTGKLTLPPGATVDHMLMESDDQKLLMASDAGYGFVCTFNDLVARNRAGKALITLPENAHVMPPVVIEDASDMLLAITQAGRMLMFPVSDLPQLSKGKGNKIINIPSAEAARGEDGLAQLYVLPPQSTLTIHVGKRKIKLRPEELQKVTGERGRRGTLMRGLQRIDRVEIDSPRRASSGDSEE
Experimental: The E. coli Topo IV Relaxation Assay Kit (Inspiralis Co., Ltd.) was used to evaluate the effects of hybrids OBP-4 and OBP-5 against topo IV. Topo IV was prepared by the overexpressing E. coli. One unit of topo IV will relax 0.4 μg of supercoiled pBR322. In the assay, the final reaction mixtures (30 μL) consisted of 0.4 μg supercoiled pBR322 and one unit DNA Topo IV with or without compounds in assay buffer with 40 mM Hepes-KOH (pH 7.6), 100 mM potassium glutamate, 10 mM magnesium acetate, 10 mM DTT, 1 mM ATP and 50 μg/mL albumin, and then was incubated at 37 °C for 30 min. The reaction was terminated by adding 30 μL of STEB and 30 μL of chloroform/isoamyl alcohol (v:v, 24:1) after incubation for 30 min. Then, the reaction products were processed as described in a DNA gyrase supercoiling assay.

[1] = tested on: other resistant organisms in the test; assay: MIC summary, resistant organisms other than MRSA and MRSE; format: cell-based; conditions: resistant strains other than MRSA and MRSE; read-out: MICs values against other resistant organisms
Text: as §1
(§2) Susceptibility testing of oxazolidinone-fluoroquinolone hybrids against various bacteria was performed by the broth microdilution method as outlined by the Clinical and Laboratory Standards Institute (CLSI). Three types of media, including cation-adjusted Mueller Hinton broth, Haemophilus Test Medium and cation-adjusted Mueller Hinton broth that contained 3%–5% lysed horse blood, were used to culture the corresponding bacteria. All compounds including comparator drugs were dissolved in an appropriate solvent at a concentration of 2.048 mg/mL and then serially diluted two-fold to provide the required concentrations. A final inoculum of 5 × 10^5 CFU/mL was used and plates were read after incubation for 16–24 h at 35 °C. […]

Gram-positive bacteria = assay: MIC summary, Gram-positive bacteria of the preliminary panel; format: cell-based
Text: as §1, §2

E. coli DNA gyrase = molecular target: T2, E. coli DNA gyrase (Escherichia coli, UniProt P0AES4+P0AES6); assay: DNA gyrase supercoiling assay; format: biochemical; conditions: supercoiling of relaxed pBR322, 37 °C, 30 min
T2 construct: purchased Inspiralis Co., Ltd; host or cells: E. coli
T2 sequence (P0AES4 whole entry, one chain of several): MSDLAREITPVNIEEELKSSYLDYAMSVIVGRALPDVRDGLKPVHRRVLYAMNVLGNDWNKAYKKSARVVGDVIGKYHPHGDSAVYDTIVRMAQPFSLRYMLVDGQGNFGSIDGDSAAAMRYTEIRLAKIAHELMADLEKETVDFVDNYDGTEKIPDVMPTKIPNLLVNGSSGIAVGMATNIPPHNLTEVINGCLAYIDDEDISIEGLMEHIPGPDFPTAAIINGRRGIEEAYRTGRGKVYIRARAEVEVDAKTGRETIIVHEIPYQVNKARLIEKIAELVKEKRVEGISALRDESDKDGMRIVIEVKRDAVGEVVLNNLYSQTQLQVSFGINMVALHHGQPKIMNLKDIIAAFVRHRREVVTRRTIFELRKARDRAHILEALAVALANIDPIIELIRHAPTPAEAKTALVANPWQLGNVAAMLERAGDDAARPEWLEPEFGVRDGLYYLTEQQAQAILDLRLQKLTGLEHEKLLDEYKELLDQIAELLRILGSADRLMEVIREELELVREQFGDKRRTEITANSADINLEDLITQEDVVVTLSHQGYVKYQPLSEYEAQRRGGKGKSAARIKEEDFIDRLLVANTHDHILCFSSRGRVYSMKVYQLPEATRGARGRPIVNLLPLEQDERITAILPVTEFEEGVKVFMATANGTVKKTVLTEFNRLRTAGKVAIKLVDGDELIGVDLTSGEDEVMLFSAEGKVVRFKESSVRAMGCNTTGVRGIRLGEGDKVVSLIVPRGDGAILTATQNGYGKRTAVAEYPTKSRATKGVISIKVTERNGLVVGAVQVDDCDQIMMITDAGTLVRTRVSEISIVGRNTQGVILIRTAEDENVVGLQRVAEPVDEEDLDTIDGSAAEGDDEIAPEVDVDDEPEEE
Experimental: The E. coli DNA Gyrase Supercoiling Assay Kit (Inspiralis Co., Ltd.) was used to investigate the inhibition activities of hybrids OBP-4 and OBP-5 against DNA gyrase. DNA gyrase is prepared from E. coli. One unit of DNA gyrase can convert 0.5 μg of relaxed pBR322 to the supercoiled forms in 30 min. […] The reaction was terminated by adding 30 μL of STEB and 30 μL of chloroform/isoamyl alcohol (v:v, 24:1), and then the products were resolved by gel electrophoresis on 1% (w/v) agarose gel at 80 V for 2 h in the absence of ethidium bromide. The gels were stained with ethidium bromide (1 μg/mL in distilled water) for 15 min, and destained (5–10 min) in distilled water. DNA bands were visualized with UV light in Bio-Rad® Chemidoc xrs and analyzed by using Quantity One software (Version 4.6, Bio-Rad).

C[C@H]1CCc2c(N3CCC(O)(COc4ccc(N5C[C@H](CO)OC5=O)cc4F)CC3)c(F)cc3c(=O)c(C(=O)O)cn1c23 [OBP-4]
MIC90 (Gram-positive isolates): 0.125 to 0.25 µg/mL (≈ 0.208 to 0.417 µM) | IC50 (E. coli Topo IV): 10 to 15 µM | MIC [1]: 0.0625 to 1 µg/mL (≈ 0.104 to 1.67 µM) | MIC (Gram-positive bacteria; read-out: MICs against Gram-positive bacteria): ≤ 0.5 µg/mL | IC50 (E. coli DNA gyrase): 1 to 5 µM

CC1Sc2c(C(=O)O)c(=O)c3cc(F)c(N4CCC(O)(COc5ccc(N6C[C@H](CO)OC6=O)cc5F)CC4)cc3n21 (some centres unmarked) [OBP-5]
MIC90 (Gram-positive isolates): 0.0625 to 0.25 µg/mL (≈ 0.104 to 0.414 µM) | fold greater activity than OBP-4, overall (Gram-positive isolates; tested clinical isolates): 2 fold | IC50 (E. coli Topo IV): > 40 µM | MIC [1]: 0.0625 to 1 µg/mL (≈ 0.104 to 1.66 µM) | antibacterial efficacy against Gram-positive bacteria, times stronger than LZD (Gram-positive bacteria; relative to LZD): 4–16 times | IC50 (E. coli DNA gyrase): 20 µM
